Assay results from US9315508B2, “Treating diabetes with dipeptidyl peptidase-IV inhibitors” (Merck Sharp & Dohme Corp., priority 2012, dated 2016).

What was measured:
[1] = molecular target: dipeptidyl peptidase-IV enzyme (DPP-4) (Homo sapiens (Human), UniProt P27487); assay: continuous fluorometric DPP-4 inhibition assay with substrate Gly-Pro-AMC; format: biochemical; conditions: soluble human DPP-4, Gly-Pro-AMC substrate
Experimental: Inhibition constants are determined as follows. A continuous fluorometric assay is employed with the substrate Gly-Pro-AMC, which is cleaved by DPP-4 to release the fluorescent AMC leaving group. The kinetic parameters that describe this reaction are as follows: Km=50 μM; kcat=75 s^−1; kcat/Km=1.5×10^6 M^−1s^−1. A typical reaction contains approximately […], 50 μM Gly-Pro-AMC, and buffer (100 mM HEPES, pH 7.5, 0.1 mg/ml BSA) in a total reaction volume of 100 μL. Liberation of AMC is monitored continuously in a 96-well plate fluorometer using an excitation wavelength of 360 nm and an emission wavelength of 460 nm. Under these conditions, approximately 0.8 μM AMC is produced in 30 minutes at 25 degrees C. The enzyme used in these studies was soluble (transmembrane domain and cytoplasmic extension excluded) human protein produced in a baculovirus expression system (Bac-To-Bac, Gibco BRL). […] To measure the dissociation constants for compounds, solutions of inhibitor in DMSO were added to reactions containing enzyme and substrate (final DMSO concentration is 1%). All experiments were conducted at room temperature using the standard reaction conditions described above. To determine the dissociation constants (Ki), reaction rates were fit by non-linear regression to the Michaelis-Menton equation for competitive inhibition. The errors in reproducing the dissociation constants are typically less than two-fold.

rats = conditions: doubled from day 7 to day 14; cited from earlier work
mouse = mouse model of cyclophosphamide-induced neutropenia; cited from earlier work
DPP-4 = DPP-4 (Homo sapiens (Human), UniProt P27487); conditions: cited from earlier work
Sequence of DPP-4 (P27487 39-766, species assumed): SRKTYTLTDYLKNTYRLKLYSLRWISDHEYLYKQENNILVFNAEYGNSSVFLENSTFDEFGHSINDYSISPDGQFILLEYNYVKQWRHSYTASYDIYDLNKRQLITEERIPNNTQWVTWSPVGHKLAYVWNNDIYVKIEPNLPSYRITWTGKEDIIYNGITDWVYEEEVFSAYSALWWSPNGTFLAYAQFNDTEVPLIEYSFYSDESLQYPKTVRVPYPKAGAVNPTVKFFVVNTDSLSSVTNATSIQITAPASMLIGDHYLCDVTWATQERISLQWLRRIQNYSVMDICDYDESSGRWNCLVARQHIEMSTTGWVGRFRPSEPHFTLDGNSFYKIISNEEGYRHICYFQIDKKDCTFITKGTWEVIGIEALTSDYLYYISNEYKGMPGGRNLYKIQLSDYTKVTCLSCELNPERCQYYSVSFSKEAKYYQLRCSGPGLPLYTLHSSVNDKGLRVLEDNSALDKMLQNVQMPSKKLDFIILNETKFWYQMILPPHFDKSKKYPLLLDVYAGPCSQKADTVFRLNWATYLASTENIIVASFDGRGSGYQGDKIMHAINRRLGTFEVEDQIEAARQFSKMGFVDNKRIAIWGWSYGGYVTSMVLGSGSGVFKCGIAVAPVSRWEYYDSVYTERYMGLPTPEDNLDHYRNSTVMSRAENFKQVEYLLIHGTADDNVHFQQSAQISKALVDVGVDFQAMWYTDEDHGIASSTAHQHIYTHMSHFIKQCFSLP

Sequence of dipeptidyl peptidase-IV enzyme (DPP-4) (P27487 29-766): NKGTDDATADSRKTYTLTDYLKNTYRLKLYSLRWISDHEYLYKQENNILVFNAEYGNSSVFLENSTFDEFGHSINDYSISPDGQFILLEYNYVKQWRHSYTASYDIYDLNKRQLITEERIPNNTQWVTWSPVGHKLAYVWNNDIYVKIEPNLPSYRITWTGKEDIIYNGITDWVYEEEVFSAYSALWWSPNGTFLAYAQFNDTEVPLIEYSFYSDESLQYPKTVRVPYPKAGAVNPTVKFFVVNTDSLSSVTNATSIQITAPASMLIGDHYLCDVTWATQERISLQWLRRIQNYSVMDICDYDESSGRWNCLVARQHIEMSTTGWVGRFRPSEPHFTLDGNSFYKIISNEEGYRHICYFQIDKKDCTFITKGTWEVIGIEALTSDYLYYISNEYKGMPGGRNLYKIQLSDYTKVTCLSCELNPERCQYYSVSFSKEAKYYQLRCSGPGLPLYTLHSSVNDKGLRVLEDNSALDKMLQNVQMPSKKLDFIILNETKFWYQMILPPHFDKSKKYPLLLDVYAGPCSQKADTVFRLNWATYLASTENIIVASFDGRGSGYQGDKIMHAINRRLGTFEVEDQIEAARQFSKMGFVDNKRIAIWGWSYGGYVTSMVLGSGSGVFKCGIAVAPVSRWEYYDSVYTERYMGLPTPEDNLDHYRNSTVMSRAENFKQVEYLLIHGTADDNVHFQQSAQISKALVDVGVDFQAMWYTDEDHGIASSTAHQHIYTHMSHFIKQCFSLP

IC50 [1]	SMILES	also measured
> 1000 nM	N[C@H]1CC(N2Cc3c[nH]nc3C2)c2ccccc2[C@@H]1c1cc(F)ccc1F (stereo partly drawn) [Example 1]	–
9 nM	CS(=O)(=O)n1cc2c(n1)CN([C@@H]1C[C@H](N)[C@@H](c3cc(F)ccc3F)[C@H]3CC13)C2 (stereo partly drawn) [Example 2]	–
5.4 nM	CS(=O)(=O)n1cc2c(n1)CN([C@@H]1C[C@H](N)[C@@H](c3cc(F)ccc3F)[C@@H]3C[C@@H]31)C2 [Example 3]	–

Further lines, the compound ahead of its results:

SMILES	IC50 [1]	also measured
CC(C)N1CCC(c2ccccc2)(c2ccccc2)CC1 [Prodipine, Pro-Pro-diphenyl-phosphonate]	–	cardiac allograft survival (rats): 14 day
CC(C)[C@H](N)C(=O)N1CCC[C@H]1B(O)O [Val-Boro-Pro]	–	hematopoiesis (mouse): stimulated hematopoiesis
CC[C@H](C)[C@H](N)C(=O)N1CCC[C@H]1C(=O)N[C@H](C(=O)O)[C@@H](C)CC [diprotin A]	–	degradation of GRF in plasma to GRF[3-44] (DPP-4): prevented
